According to patent US11608325B2, “Polycrystalline form of dehydrophenylahistin-like compound, and manufacturing and purification method and application thereof” (Shenzhen Huahong Marine Biomedicine Co., Ltd., priority 2016, dated 2023):
Entries after “also recorded” stand apart in the source; their conditions may differ.

Legend:
Assay type in all cases: physicochemical
[1] = Stability study of plinabulin polymorphs
[2] = Hygroscopicity test (Chinese Pharmacopoeia 2015 Volume IV, general rule 9103); details: for Weight gain: Left for 24 h
Experimental: The test was conducted according to the general rule 9103 of guiding principle for drug hygroscopicity test in Chinese Pharmacopoeia 2015 edition Volume IV, and the results are shown in Table 6.

[3] = High-humidity stress test (25° C., 90% RH); details: for stability / transformation under high-humidity condition: stress testing, high humidity (25° C., 90% RH); for Appearance / Content (HPLC) (calculated as an anhydride) / Relevant substance Impurity D / Relevant substance Total impurities / Relevant substance Impurity A: High-humidity test/25° C., 90% RH; for Relevant substance Impurity A: LOQ (0.035%)
Experimental: (§1) In accordance with the general rule 9001 of guiding principles for stability tests of APIs and preparations in the Chinese Pharmacopoeia 2015 edition Volume IV, stress testing of the δ-crystalline form of (3Z,6Z)-3-benzylidene-6-[(5-tert-butyl-1H-imidazol-4-yl)deuteromethylene]piperazine-2,5-dione was conducted under high temperature, high humidity and illumination conditions, the sample batch number was 20150401, and the results are shown in Tables 7, 8 and 9 below.

[4] = Transformation of other crystalline forms under humidity or in water
[5] = High-temperature stress test (60° C.); details: for stability under high-temperature condition: stress testing, high temperature (60° C.); for Appearance / Content (HPLC) (calculated as an anhydride) / Relevant substance (HPLC) Impurity D / Relevant substance (HPLC) Total impurities / Relevant substance (HPLC) Impurity A: High-temperature test/60° C.; for Relevant substance (HPLC) Impurity A: LOQ (0.035%)
Experimental: as §1

[6] = Illumination stress test (4500 Lx±500 Lx); details: for Appearance / Content (HPLC) (calculated as an anhydride) / Relevant substance (HPLC) Impurity D / Relevant substance (HPLC) Total impurities / Relevant substance (HPLC) Impurity A: Illumination test/4500Lx ± 500Lx; for Relevant substance (HPLC) Impurity A: LOQ (0.035%); for stability under illumination condition: stress testing, illumination (4500 Lx±500 Lx), monohydrate
Experimental: as §1

[7] = 6-month accelerated stability test (40° C.±2° C./75%±5% RH)
Experimental: Meanwhile, a 6-month accelerated stability test was conducted on the δ-crystalline form of (3Z,6Z)-3-benzylidene-6-[(5-tert-butyl-1H-imidazol-4-yl)deuteromethylene]piperazine-2,5-dione. The sample batch number was 20150404. Factory packaging was simulated. The test conditions were 40° C.±2° C./75%±5% RH.

[8] = after being stirred in water for 3 hours
[9] = listed as 20150401, monohydrate
[10] = listed as 20150402, monohydrate
[11] = listed as 20150403, monohydrate
[12] = listed as (3Z,6Z)-3-benzylidene-6-[(5-tert-butyl-1H-imidazol-4-yl)deuteromethylene]piperaz, monohydrate

CC(C)(C)c1[nH]cnc1/C=c1\[nH]c(=O)/c(=C/c2ccccc2)[nH]c1=O [a-crystalline form, (3Z,6Z)-3-benzylidene-6-[(5-tert-butyl-1H-imidazol-4-yl)methylene]piperazine-2,5-dione]
Hygroscopicity ([1]; plinabulin crystalline forms): certain hygroscopicity | transformation of crystalline form ([1]; under high humidity condition): easily transformed into a d-crystalline form

CC(C)(C)c1[nH]cnc1/C=c1\[nH]c(=O)/c(=C/c2ccccc2)[nH]c1=O.O [d-crystalline form, (3Z,6Z)-3-benzylidene-6-[(5-tert-butyl-1H-imidazol-4-yl)methylene]piperazine-2,5-dione monohydrate]
stability [1]: high stability | molecular stability ([1]; during preparation and storage processes): excellent molecular stability | stability as solid API in stress testing ([1]; high temperature, high humidity and illumination conditions): remain stable

[2H]/C(c1nc[nH]c1C(C)(C)C)=c1/[nH]c(=O)/c(=C/c2ccccc2)[nH]c1=O [α-crystalline form, (3Z,6Z)-3-benzylidene-6-[(5-tert-butyl-1H-imidazol-4-yl)deuteromethylene]piperazine-2,5-dione]
Hygroscopicity [2]: certain hygroscopicity | stability / transformation under high-humidity condition [3]: easily transformed into the δ-crystalline form; also recorded: absorbs moisture easily to transform into δ-crystalline form | transformation of crystalline form ([4]; under 60% humidity condition): may partially transform into δ-crystalline form

[2H]/C(c1nc[nH]c1C(C)(C)C)=c1/[nH]c(=O)/c(=C/c2ccccc2)[nH]c1=O [β-crystalline form, (3Z,6Z)-3-benzylidene-6-[(5-tert-butyl-1H-imidazol-4-yl)deuteromethylene]piperazine-2,5-dione]
Hygroscopicity [2]: no hygroscopicity | stability under high-temperature condition [5]: not stable enough | transformation of crystalline form [4, 8]: most of which may transform into δ-crystalline form

[2H]/C(c1nc[nH]c1C(C)(C)C)=c1/[nH]c(=O)/c(=C/c2ccccc2)[nH]c1=O [γ-crystalline form, (3Z,6Z)-3-benzylidene-6-[(5-tert-butyl-1H-imidazol-4-yl)deuteromethylene]piperazine-2,5-dione]
Hygroscopicity [2]: no hygroscopicity | stability under high-temperature condition [5]: not stable enough | transformation of crystalline form [4, 8]: most of which may transform into δ-crystalline form

O.[2H]/C(c1nc[nH]c1C(C)(C)C)=c1/[nH]c(=O)/c(=C/c2ccccc2)[nH]c1=O [δ-crystalline form, (3Z,6Z)-3-benzylidene-6-[(5-tert-butyl-1H-imidazol-4-yl)deuteromethylene]piperazine-2,5-dione monohydrate]
Weight gain [2, 9]: 0.20 mg | Weight gain [2, 10]: 0.24 mg | Weight gain [2, 11]: 0.20 mg | weight gain percentage ([2]; bottle opened for 24 hours): less than 0.2% | Hygroscopicity [2, 9]: none | Hygroscopicity [2, 10]: none | Hygroscopicity [2, 11]: none | Hygroscopicity ([2]; monohydrate): basically not hygroscopic | Appearance ([5]; day 0): Yellow powder | Content (HPLC) (calculated as an anhydride) ([5]; day 0): 99.7% | Relevant substance (HPLC) Impurity D ([5]; day 0): Impurity D: 0.06% | Relevant substance (HPLC) Total impurities ([5]; day 0): 0.07% | Relevant substance (HPLC) Impurity A ([5]; day 0): Impurity A: <LOQ | Appearance ([5]; day 5): Yellow powder | Content (HPLC) (calculated as an anhydride) ([5]; day 5): 99.4% | Relevant substance (HPLC) Impurity D ([5]; day 5): Impurity D: 0.06% | Relevant substance (HPLC) Total impurities ([5]; day 5): 0.07% | Relevant substance (HPLC) Impurity A ([5]; day 5): Impurity A: <LOQ | Appearance ([5]; day 10): Yellow powder | Content (HPLC) (calculated as an anhydride) ([5]; day 10): 99.8% | Relevant substance (HPLC) Impurity D ([5]; day 10): Impurity D: 0.06% | Relevant substance (HPLC) Total impurities ([5]; day 10): 0.07% | Relevant substance (HPLC) Impurity A ([5]; day 10): Impurity A: <LOQ | stability under high-temperature condition [5, 12]: remain stable | stability under high-temperature condition ([5]; monohydrate): very stable; also recorded: relatively stable | Appearance ([3]; day 0): Yellow powder | Content (HPLC) (calculated as an anhydride) ([3]; day 0): 99.7% | Relevant substance Impurity D ([3]; day 0): Impurity D: 0.06% | Relevant substance Total impurities ([3]; day 0): 0.07% | Relevant substance Impurity A ([3]; day 0): Impurity A: <LOQ | Appearance ([3]; day 5): Yellow powder | Content (HPLC) (calculated as an anhydride) ([3]; day 5): 99.5% | Relevant substance Impurity D ([3]; day 5): Impurity D: 0.06% | Relevant substance Total impurities ([3]; day 5): 0.07% | Relevant substance Impurity A ([3]; day 5): Impurity A: <LOQ | Appearance ([3]; day 10): Yellow powder | Content (HPLC) (calculated as an anhydride) ([3]; day 10): 99.6% | Relevant substance Impurity D ([3]; day 10): Impurity D: 0.06% | Relevant substance Total impurities ([3]; day 10): 0.07% | Relevant substance Impurity A ([3]; day 10): Impurity A: <LOQ | stability / transformation under high-humidity condition [3, 12]: remain stable | stability / transformation under high-humidity condition ([3]; monohydrate): very stable; also recorded: relatively stable | Appearance ([6]; day 0): Yellow powder | Content (HPLC) (calculated as an anhydride) ([6]; day 0): 99.7% | Relevant substance (HPLC) Impurity D ([6]; day 0): Impurity D: 0.06% | Relevant substance (HPLC) Total impurities ([6]; day 0): 0.07% | Relevant substance (HPLC) Impurity A ([6]; day 0): Impurity A: <LOQ | Appearance ([6]; day 5): Yellow powder | Content (HPLC) (calculated as an anhydride) ([6]; day 5): 100.1% | Relevant substance (HPLC) Impurity D ([6]; day 5): Impurity D: 0.05% | Relevant substance (HPLC) Total impurities ([6]; day 5): 0.05% | Relevant substance (HPLC) Impurity A ([6]; day 5): Impurity A: <LOQ | Appearance ([6]; day 10): Yellow powder | Content (HPLC) (calculated as an anhydride) ([6]; day 10): 99.8% | Relevant substance (HPLC) Impurity D ([6]; day 10): Impurity D: 0.05% | Relevant substance (HPLC) Total impurities ([6]; day 10): 0.05% | Relevant substance (HPLC) Impurity A ([6]; day 10): Impurity A: <LOQ | stability under illumination condition ([6]; listed as (3Z,6Z)-3-benzylidene-6-[(5-tert-butyl-1H-imidazol-4-yl)deuteromethylene]piperaz): remain stable | stability under illumination condition [6]: very stable; also recorded: relatively stable | stability in accelerated stability test ([7]; 6 months, monohydrate): very stable; also recorded: excellent stability | Content (HPLC) (calculated as an anhydride) ([7]; month 0): 99.5% | Relevant substance (HPLC) Impurity D ([7]; month 0): 0.06% | Relevant substance (HPLC) Other single impurity ([7]; month 0): Not detected | Relevant substance (HPLC) Total impurities ([7]; month 0): 0.07% | Relevant substance (HPLC) Impurity A ([7]; month 0, LOQ (0.035%)): <LOQ | Content (HPLC) (calculated as an anhydride) ([7]; month 1): 99.6% | Relevant substance (HPLC) Impurity D ([7]; month 1): 0.06% | Relevant substance (HPLC) Other single impurity ([7]; month 1): Not detected | Relevant substance (HPLC) Total impurities ([7]; month 1): 0.08% | Relevant substance (HPLC) Impurity A ([7]; month 1, LOQ (0.035%)): <LOQ | Content (HPLC) (calculated as an anhydride) ([7]; month 2): 100.2% | Relevant substance (HPLC) Impurity D ([7]; month 2): 0.06% | Relevant substance (HPLC) Other single impurity ([7]; month 2): Not detected | Relevant substance (HPLC) Total impurities ([7]; month 2): 0.08% | Relevant substance (HPLC) Impurity A ([7]; month 2, LOQ (0.035%)): <LOQ | Content (HPLC) (calculated as an anhydride) ([7]; month 3): 99.8% | Relevant substance (HPLC) Impurity D ([7]; month 3): 0.06% | Relevant substance (HPLC) Other single impurity ([7]; month 3): Not detected | Relevant substance (HPLC) Total impurities ([7]; month 3): 0.08% | Relevant substance (HPLC) Impurity A ([7]; month 3, LOQ (0.035%)): <LOQ | Content (HPLC) (calculated as an anhydride) ([7]; month 6): 99.7% | Relevant substance (HPLC) Impurity D ([7]; month 6): 0.06% | Relevant substance (HPLC) Other single impurity ([7]; month 6): Not detected | Relevant substance (HPLC) Total impurities ([7]; month 6): 0.08% | Relevant substance (HPLC) Impurity A ([7]; month 6, LOQ (0.035%)): <LOQ

CC(C)O.[2H]/C(c1nc[nH]c1C(C)(C)C)=c1/[nH]c(=O)/c(=C/c2ccccc2)[nH]c1=O [ε-crystalline form, (3Z,6Z)-3-benzylidene-6-[(5-tert-butyl-1H-imidazol-4-yl)deuteromethylene]piperazine-2,5-dione monoisopropylate]
stability under high-temperature condition [5]: not stable enough
